Assay results as given in patent US12653181B2, “Control of ripening and senescence in pre-harvest and post-harvest plants and plant materials by manipulating alternative oxidase activity” (Washington State University, priority 2012, dated 2026).
“Also recorded” adds a separate entry of the source.

Legend:
[1] = tested on: Wild type tomatoes (var. 'Ailsa Craig'); test: Ripening (visual pigmentation) of wild type mature green tomato fruit; format: in vivo; conditions: for ripening response (pigmentation green to red) versus deionized water control: treated or injected with 1 mL of 2% solution, 7 days
Bartlett pears = test: Ethylene and CO2 evolution of 1-MCP treated Bartlett pears in air-tight chambers (GC-FID, gas analyzer); format: in vivo, Pyrus communis
Description: Thereafter, each experimental group of fruit was placed in a separate air-tight chamber connected to a gas chromatography (GC) instrument configured to draw samples every 8 hours over the course of 5 days, to measure ethylene via a flame ionizing detector (FID), and to measure CO2 via a gas analyzer. The experiment was performed with 4 pears per chamber in 3 replicates per experimental group. Monitoring was performed to detect minor variation in air flow rates in all experimental chambers used and detected variations were accounted for in subsequent calculations.

Haas avocado = test: Avocado fruit flesh firmness after atomized GLA exposure (penetrometer); format: in vivo; conditions: for percentage of terminal ripened firmness achieved: 3% GLA 16 hours
Description: (§1) Fruits: Avocado and Mango fruits were purchased from Pullman Walmart and half were immediately placed in separate chambers for administration of glyoxylic acid, half were left on the bench top at 20° C.
(§2) GLA treatment: Humidification via sonication was accomplished by administering 1 liter of 3% (m/V) glyoxylic acid (GLA) solution in deionized water into the reservoir of a Crane humidifier model EE-5301. Atomized GLA solution was directed via surgical tubing from the humidifier into a custom acrylic chamber measuring approximately 40×60×60 cm containing 12 pears per treatment for 16 hours. Fruits were elevated from the chamber floor on metal baking racks to allow for exposure to GLA on all faces. One (1) 1 cm diameter port allowed for gas exchange between the atmosphere and chamber. A thick cloud of atomized GLA solution was visible in each chamber for the duration of each experimental exposure time. All experiments were conducted at 20° C.
(§3) Firmness measurements: Fruit firmness was measured via FTA penetrometer (GUSS Manufacturing, Norfolk, VA) at three equidistant locations around the middle of each fruit. Therefore, one biological replicate yielded three technical replicates. For each penetrometer measurement, approximately 2 cm^2 of fruit epidermal tissue was removed with a fruit peeler. Firmness measurements were taken at the locations on the fruit where epidermal tissue was removed. Firmness measurements were taken from three biological replicates per treatment at 1, 3, 5 and 7 days post treatment (DPT).
Firmness normalization: Firmness measurements were normalized to account for variability in starting fruit flesh firmness. At the start of each experiment, three untreated fruits were selected, and three fruit flesh measurements were taken from each and averaged. Firmness measurements from each exposure time treatment are reported as a percentage of the starting fruit flesh firmness average.

whole pears = test: Firmness of whole pears after 24 h immersion in glyoxylic acid solution (penetrometer); format: in vivo, pear; conditions: after 6 days
Description: In order to ripen whole pear fruit pretreated with 1-MCP, the fruits were treated by immersion in 0 mM, 0.1 mM, 0.25 mM, 0.5 mM glyoxylic acid. In other experiments, the fruits were treated by ambient fogging of fruit with 1 liter of solution of 1% (0.135 M), 2% (0.270 M) and 3% (0.405 M) glyoxylic acid solution (determined with 74 as the molecular weight of glyoxylic acid). The ambient fogging was carried out in a 192,000 cm^3 volume chamber using an ultrasonic humidifier. Various indicators of ripening were assayed thereafter. In a first assay, whole pears pre-treated with 1-MCP were immersed in 0 mM, 0.1 mM, 0.25 mM, or 0.5 mM glyoxylic acid solution for 24 hours. The fruit was assayed for firmness using a penetrometer six days after the immersion treatment. FIG. 7 graphically illustrates the reduction in firmness (i.e., development of softness) in pear fruit treated with various concentrations of glyoxylic acid. Non-1-MCP treated fruit (light bars) and 1-MCP treated fruit (dark bars) responded differently to glyoxylic acid treatment.

sliced pear fruit = test: Ethylene evolved from sliced 1-MCP fruit treated with glyoxylic acid in sealed modified atmosphere bag; format: in vivo
Description: Next, a modified protocol was followed to expose fruit slices derived from 1-MCP pre-treated fruit to solutions of glyoxylic acid. Glyoxylic acid solutions ranging from 0.005% (0.675 mM), 0.150% (20.25 mM), 0.5% ([…]), 1% (0.135 M), 2% (0.270 M), 2.5% (0.338 M) and 3% (0.405 M) were prepared either alone or in conjunction with the Nature seal solution, which contains antioxidants that prevent fruit oxidation. 1-MCP fruit was sliced and treated with the 0.005%, 0.150%, 0.5% or 2.5% glyoxylic acid solutions and placed in a modified, sealed atmosphere bag. The amount of evolved ethylene was measured directly from the sealed bag of fruit. […] Finally, the 1-MCP fruit that were sliced and treated with 1%, 2% and 3% glyoxylic acid were evaluated in consumer preference trials in 2014 and 2015.

Mango = Mango fruit flesh firmness after atomized GLA exposure (penetrometer); format: in vivo; conditions: 3% GLA, 16 hours, readings confounded by variable rinds
Description: as §1, §2
as §3, with “Firmness measurements were taken from three biological replicates per treatment at 1, 3, 5 and 7 days post treatment (DPT).” left out

[2] = tested on: whole pears with or without 1-MCP pre-treatment; test: Internal ethylene of pears after ambient fogging with glyoxylic acid (gas extraction, GC/MS); format: in vivo, pear; conditions: both 1-MCP pre-treated and non-1-MCP pre-treated fruit
Description: As an additional confirmation of glyoxylic acid-mediated ripening of 1-MCP pre-treated pears, the internal ethylene of the fruit was also measured. First, the whole fruit with or without 1-MCP pre-treatment were treated with 0.5% ([…]) or 1% (0.135 M) glyoxylic acid using ambient fogging. Thereafter, one quarter of four separate pears from each treatment was sliced into four pieces and placed into a gas extraction chamber. A vacuum was created using an aspirator. For each experiment, 0.5 ml of extracted ethylene gas was injected into the GC/MS in three replicates. Measurements of ethylene in ppm were calculated using a previously established standard curve.

[3] = tested on: fruit slices of 1-MCP pre-treated pears; test: Ethylene from slices of 1-MCP pre-treated pears immersed in glyoxylic acid, airtight jar; format: in vivo, pear; conditions: immersed 12-24 hours, measured after 8 hours
Description: The effect of glyoxylic acid on the restarting of ripening after 1-MCP-mediated arrest was also assayed with fruit that was sliced. Whole unripe pears were pre-treated with 1-MCP according to standard practice. The unripe pre-treated fruit were sliced and subject to glyoxylic acid treatments to assess its ability to induce ripening in the sliced fruit. First, fruit slices were immersed in 0.5 mM and 2.5 mM glyoxylic acid solution for 12-24 hours and placed in an airtight jar. Ethylene levels were measured after 8 hours. […] Slices immersed in the 2.5 mM glyoxylic also produced more (approximately 2-fold more) ethylene than the controls, although the increase in ethylene levels was not as high as for the 0.5 mM treatment.

[4] = tested on: Non-MCP treated D'Anjou pears; test: Flesh firmness of non-MCP treated D'Anjou pears after atomized GLA exposure (penetrometer); format: in vivo, pear; conditions: 3% GLA, various exposure times, 1, 3, 5, 7 days post exposure
Description: Pear fruit: Non-MCP treated D'Anjou pears picked on Oct. 4, 2019 were obtained from Blue Bird packing house (Blue Bird Inc., Wenatchee Washington) and stored at 1° C. until use.
as §2, with “GLA” for “(m/V) glyoxylic acid (GLA)”, “solution” for “solution in deionized water”, “treatment. Pears” for “treatment for 16 hours. Fruits”
as §3, with “Firmness measurements were taken from three biological replicates per treatment at 1, 3, 5 and 7 days post treatment (DPT).” left out

rin tomato fruit = test: Ripening (visual pigmentation) of rin mutant tomato fruit; format: in vivo; conditions: for ripening response (change in pigmentation) of rin tomato fruit: 2% GLA, observed over 14 days; for pigment response in untreated rin fruit on the same branches as treated fruit: GLA injection to a single fruit
[5] = tested on: 1-MCP pre-treated fruit (whole pear); test: Firmness and Brix of 1-MCP pre-treated whole pears after ambient fogging with glyoxylic acid; format: in vivo; conditions: 1% (0.135 M) ambient fogging
Description: In order to ripen whole pear fruit pretreated with 1-MCP, the fruits were treated by immersion in 0 mM, 0.1 mM, 0.25 mM, 0.5 mM glyoxylic acid. In other experiments, the fruits were treated by ambient fogging of fruit with 1 liter of solution of 1% (0.135 M), 2% (0.270 M) and 3% (0.405 M) glyoxylic acid solution (determined with 74 as the molecular weight of glyoxylic acid). The ambient fogging was carried out in a 192,000 cm^3 volume chamber using an ultrasonic humidifier. Various indicators of ripening were assayed thereafter.
Next, 1-MCP pre-treated fruit were treated with glyoxylic acid using ambient fogging at 0% or 1% (0.135 M) glyoxylic acid. In this experiment, the fruit firmness was measured at two time points—immediately after the fogging treatment and again 8 days later using a penetrometer. […] The fruit were also assessed for ripeness by assaying the Brix values, which are indicative of total soluble solids and also serve as an industry standard for fruit ripening. […] All these experiments have been repeated multiple times and have been consistent with the above data.

## [Cl-].[Cl-].[Co+2] [CoCl2, reference compound]
[1]; in vivo
  visible ripening response: no visible ripening response

## S [RC-1, hydrogen sulfide]
Bartlett pears; 0.5 mM H2S
  evolution of ethylene: clear and steady increase in the evolution of ethylene
Bartlett pears; 0.5 mM H2S (RC-1), 5 days monitoring
  level of respiration (evolved CO2): positive trend
Bartlett pears; 0.5 mM H2S (RC-1), 5 days monitoring, listed as H2S
  level of respiration (evolved CO2): generally positive trend
Bartlett pears; 2.5 mM H2S
  level of ethylene versus control fruit: indistinguishable and very low
Bartlett pears; 2.5 mM H2S, perhaps a stress response
  level of respiration (evolved CO2): higher levels of carbon dioxide
Bartlett pears; RC-1, pear fruit blocked for ripening by 1-MCP
  time post-treatment at which ethylene evolution is observed: 48 h

## O=CC(=O)O [glyoxylic acid]
Bartlett pears; 0.25 mM RC-2, pear fruit blocked for ripening by 1-MCP
  time at which ethylene evolution is observed: ≤ 16 h
Bartlett pears; 0.25 mM glyoxylic acid (RC-2)
  evolution of ethylene: clear and steady increase in the evolution of ethylene
Bartlett pears; 1, 2.5 and 10 mM glyoxylic acid
  level of ethylene versus control fruit: indistinguishable and very low
Bartlett pears; as little as 0.25 mM
  maturation in pears after 1-MCP treatment: induces maturation
Haas avocado; one day post treatment (control 31%)
  percentage of terminal ripened firmness achieved: 81%
Haas avocado; three days post treatment (control 96%)
  percentage of terminal ripened firmness achieved: 92%
Haas avocado; 3% GLA solution, atomized, 16 hours, listed as GLA
  ripening as measured by fruit flesh firmness versus non-GLA control: significant acceleration of ripening; also recorded: evidence for accelerated ripening
Whole pears; 0.5 mM immersion solution
  firmness effect in 1-MCP treated fruit: especially enhanced over control
Whole pears; 0.5 mM
  firmness of non-1-MCP treated fruit: reduction in firmness is evident
Whole pears; all concentrations (0.1, 0.25, 0.5 mM), 24 h immersion, compared to non-1-MCP treated fruit
  firmness of 1-MCP treated fruit: drop in firmness
Sliced pear fruit; 2.5% (337 mM) solution, sealed atmosphere bag
  evolution of ethylene from sliced fruit versus control: enhanced the evolution of ethylene; also recorded: significantly increased ethylene production
Sliced pear fruit; some of a range of concentrations (0.005%-2.5%)
  ethylene evolved versus control fruit: releases more ethylene than the control fruit
[1]
  ripening response (pigmentation green to red) versus deionized water control: accelerated ripening
[1]; listed as GLA
  ripening response (pigmentation green to red) versus deionized water control: accelerated ripening response
Mango
  ripening as measured by fruit flesh firmness: trend towards accelerated ripening
[2]; 0.5% (0.6.75 mM) ambient fogging
  internal ethylene evolution: effective in inducing the evolution of ethylene
[2]; 1% (0.135 M) ambient fogging
  internal ethylene evolution: effective in inducing the evolution of ethylene
[3]; 0.5 mM
  ethylene generated relative to control slices: 5 fold
[3]; 2.5 mM
  ethylene generated relative to control slices: approximately 2 fold
[4]
  ripening as measured by pear fruit flesh firmness: trend towards accelerated ripening
Rin tomato fruit
  ripening response (change in pigmentation) of rin tomato fruit: change in pigmentation resembling that achieved at breaker stage in wild type tomatoes
  pigment response in untreated rin fruit on the same branches as treated fruit: systemic
Rin tomato fruit; listed as GLA
  ripening response (change in pigmentation) of rin tomato fruit: enables ripening of rin mutant fruit
  pigment response in untreated rin fruit on the same branches as treated fruit: Systemic pigmentation response
[5]; 8 days
  fruit firmness: 2 lbf
[5]; 8 days post fogging
  Brix values (total soluble solids): significantly increased brix values
